The values that follow come from patent US12377119B2, “Natural killer cells” (IMPERIAL COLLEGE INNOVATIONS LIMITED, priority 2018, dated 2025).

The target of experiment [1] is T1, REV-ERBα (Homo sapiens, UniProt P20393).
T1 construct: expressed in transfected cells; host or cells: HEK293T
T1 sequence (P20393 1-614): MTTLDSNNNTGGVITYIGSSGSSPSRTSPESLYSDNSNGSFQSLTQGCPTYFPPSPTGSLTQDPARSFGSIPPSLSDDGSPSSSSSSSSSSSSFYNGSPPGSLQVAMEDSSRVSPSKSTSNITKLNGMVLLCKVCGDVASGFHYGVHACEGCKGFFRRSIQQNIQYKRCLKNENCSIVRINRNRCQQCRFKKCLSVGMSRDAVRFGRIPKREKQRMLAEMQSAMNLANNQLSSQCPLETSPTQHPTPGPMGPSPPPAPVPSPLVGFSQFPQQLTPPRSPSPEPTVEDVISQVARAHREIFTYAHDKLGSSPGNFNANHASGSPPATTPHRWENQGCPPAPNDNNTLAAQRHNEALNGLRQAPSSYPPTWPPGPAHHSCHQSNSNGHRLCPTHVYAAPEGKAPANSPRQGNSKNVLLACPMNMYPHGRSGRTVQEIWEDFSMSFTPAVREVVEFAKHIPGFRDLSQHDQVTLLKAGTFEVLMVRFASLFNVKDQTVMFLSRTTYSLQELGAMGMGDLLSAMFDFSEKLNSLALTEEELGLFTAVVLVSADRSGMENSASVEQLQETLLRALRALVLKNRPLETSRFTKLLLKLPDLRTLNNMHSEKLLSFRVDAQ
Briefly: Dual-luciferase Bmal-luc reporter assay in HEK293T cells transfected with REV-ERBα. Format: cell-based. The settings on record: 10 μM. On the procedure: HEK293T cells were defrosted and maintained in DMEM supplemented with 10% FCS and 1% P/S at 37° C. and 5% CO2. Cells were plated in a 24-well plate (7·10^4 cells/well in 0.5 mL of DMEM+10% FCS). 24 h after seeding, cells were transfected with 100 ng of Bmal-luc, 10 ng of pRL-CMV Renilla as an internal control and 10 ng of REV-ERBα or the empty vector pcDNA3 as a control. All conditions were equalled to a total of 400 ng of DNA by using BSM. In order to prepare transfection samples, calculated amounts of DNA needed for each condition were prepared in Opti-MEM and Fugene was added in a 5:2 Fugene:DNA ratio. Mixtures were vortexed to assure homogeneity and left to incubate for 15 min at rt. Afterwards, each DNA mix was transferred into the 24-well plate containing the pre-seeded cells, with each condition repeated by triplicate. 5 h after transfection, cells were treated with compounds 2-12, AG1-AG5 or DMSO as vehicle. Solution of the compounds in DMEM were prepared at a double concentration than the final desired one, and 0.5 mL of these solutions were added to each well. 24 h after transfection, cells were lysed and luciferase activity was measured using Dual-Luciferase Reporter Assay System E2920 (Promega). To perform the experiment, cells were lysed by adding 50 μL of passive lysis buffer (PLB) (1:5 dilution) to each well and gently stirring for 30 min. Each cell lysate was transferred to a 96-well plate. 50 μL of Dual-Glo reagent were dispensed into each well, tapped gently to mix and incubated for 10 min. Luminescence of firefly luciferase was measured using a Tecan VICTOR Light Luminescent counter equipment. Then, 50 μL of Stop&Glo reagent were dispensed to quench firefly activity and activate Renilla luciferase, incubated for 10 min and measured. Firefly activity was normalized to Renilla luciferase activity. Results were analysed using Welch's corrected parametric t-test.
The method of Example 2 was repeated using Compounds 70 to 72 (generated as described in Example 1). Compounds 4, 7 and 11 (tested in Example 2) were used as a positive control for REV-ERB inhibitory activity, agonist compound AG2 (also tested in Example 2) and DMSO were also tested as comparators.
The method of Example 2 was repeated using Compounds 64 to 66, 69 and 70 to 73 (generated as described in Example 1). Once again, Compounds 4, 7 and 11 (tested in Example 2) were used as a positive control for REV-ERB inhibitory activity, agonist compound AG2 (also tested in Example 2) and DMSO were also tested as comparators.
The method of Example 2 was repeated using Compounds 16 to 19, 27, 28 and 44 (generated as described in Example 1). Once again, Compounds 4, 7 and 11 (tested in Example 2) were used as a positive control for REV-ERB inhibitory activity, agonist compound AG2 (also tested in Example 2) and DMSO were also tested as comparators.
In general terms: A reporter such as luciferase makes a cellular process visible.

The test system of experiment [2] is NK cells. Nature of the experiment: NK cells development assay (Lin− bone marrow cells co-cultured with OP9 stromal cells, flow cytometry). Format: cell-based, mouse. On the procedure: Mice. All mice used in this study were wild type on a C57BL/6 background, between six and twelve weeks old. All animal husbandry and experimental procedures were performed according to UK Home Office regulations and institute guidelines.
OP9 cell line and cell culture. OP9 is a stromal cell line from mouse bone marrow known to support lymphocyte differentiation of hematopoietic progenitors when co-culturing with them. OP9-GFP cells were cultured in Iscove's Modified Dulbecco's Medium (IMDM) (Sigma-Aldrich) supplemented with 20% Fetal Bovine Serum (FBS) and 1% Penicillin/[…] (P/S). They were split into 24-well plates with 2500 cells per well two days before transferring Lin− cells onto them. Cells were kept in a 5% CO2 humidified atmosphere at 37 QC. Lineage negative cells isolation from bone marrow. Mouse leg and hip bones were crushed in Phosphate Buffered Saline (PBS) with 2% FBS to release bone marrow cells. Cell suspension was filtered through a […] strainer, topped up to 40 mL with PBS+2% FBS and centrifuged at 500×g for 4 minutes. Cells were resuspended in 2 mL PBS+2% FBS and stained with phycoerythrin (PE)-conjugated cocktail (20 μL anti-B220 (RA3/6B2), 20 μL anti-CD2 (RM2-5), 20 μL anti-Ter119 (TER119), 20 μL anti-NK1.1 (PK136), 5 μL anti-CD11b (M1/70) and 5 μL Gr1 (RB6-8C5) antibodies (all from eBioscience) for 5 minutes at 4° C. Then, cells were washed, centrifuged and incubated with anti-PE Microbeads (Miltenyi) for 15 minutes at 4° C. Next, cells were washed with PBS and passed through LD column (Miltenyi), enabling the negative selection of unstained Lin− cells that flowed through the column. 50 μL of cells were taken to check the purity after depletion using flow cytometry. In vitro NK cell development from lineage negative cells. Lin− cells were plated in 24-well plates with 5×10^5 cells in 1 mL of Dulbecco's Modified Eagle Medium (DMEM) (Sigma-Aldrich) supplemented with 10% embryonic stem cell-qualified FBS (ES-FBS), 1% P/S, 50 μM β-Mercaptoethanol (β-ME), 10 ng/ml Flt3-ligand (Flt3L) (R&D Systems), 10 ng/mL IL-7 (R&D Systems) and 100 ng/mL stem cell factor (SCF) (R&D Systems) per well and cultured for 2 days. Cells were transferred for co-culture with OP9-GFP stromal cells in 24-well plates with 3×10^4 cells in 1 mL of Alpha MEM (Sigma-Aldrich) supplemented with 20% ES-FBS, 1% P/S, 50 μM β-ME and 10 ng/mL IL-15 (R&D Systems) per well and cultured for […]. Compounds were added on day 2, at the same time as cells were transferred together with OP9. Supernatant was removed on day 5, and new media was added with compound. Cells were kept in a 5% CO2 humidified atmosphere at 37° C.
Flow cytometry. After being cultured for 7 days, cells were harvested, filtered through 40 μm strainers to remove OP9 cells and washed with PBS. After centrifuging at 500×g for 5 minutes at 4° C., they were stained with appropriate fluorochrome conjugated antibodies with 1:300 dilution in 100 μL of fluorescent activated cell sorting (FACS) buffer (PBS with 1% BSA) for 15 minutes at 4° C. in the dark. Antibodies include CD3(e450), NK1.1(APC), NKp46(Percp e710) and PI, all of which are anti-mouse and from eBioscience. Cells were then washed in 1 ml FACS buffer, centrifuged and resuspended in 300 μL FACS buffer. Compensation was set up using Anti-Mouse Ig, k and Anti-Rat/Hamster Ig, k Compensation Particles Set (BDTM Combead). Flow cytometry analysis was carried out using BD LSRFortessa™ cell analyser (Becton Dickinson Bioscience) and data analysis was performed using FlowJo.
The method of Example 7 was repeated using 5 μM of Compounds 7 and 11, and 5 and 10 μM of Compound 72.
On the technique in general: In flow cytometry, cells or beads pass a laser one at a time.

Setting [3] is: FIG. 3, three independent experiments in triplicate, comparison with SR8278.
Setting [4] is: FIG. 4, two independent experiments in triplicate, comparison with SR8278.
Setting [5] is: FIG. 7, three independent experiments in triplicate.
The mark [6] stands for this setting: 5 μM, FIG. 10, compared with SR8278.
[7] abbreviates: 10 μM, FIG. 9, compared with SR8278.
The mark [8] stands for this setting: FIG. 10 legend, concentration not stated there (5 μM for 7 and 11, 5 and 10 μM for 72), compared with SR8278 and AG2.

“Also recorded” adds a separate entry of the source.

Take `CCOC(=O)C1Cc2ccccc2CN1C(=O)c1ccco1` (racemic) [Compound 7, Ethyl 2-(furan-2-carbonyl)-1,2,3,4-tetrahydrolsoquinoline-3-carboxylate]: the “Effect on REV-ERBα activity (Bmal-luc luciferase expression)” value (“Effect on REV-ERBα activity” for short) is reported as “significant increase in luciferase expression compared with SR8278; also recorded: significant antagonistic activity” in experiment [1] (setting [3]), “significant antagonistic activity” in experiment [1] (setting [4]) and “significant antagonistic activity” in experiment [1] (setting [5]). Moreover, the “Total number of NK cells” value is given as “significant increase in the total number of NK cells compared with SR8278” in experiment [2] (setting [6]), “significant increase in NK cell number” in experiment [2] (setting [7]) and “significant increase in NK cell number” in experiment [2] (setting [8]).
Turning to `CCOC(=O)C1Cc2ccccc2CN1C(=O)c1ccno1` (racemic) [Compound 8, Ethyl 2-(isoxazole-5-carbonyl)-1,2,3,4-tetrahydrolsoquinoline3-carboxylate], the “Effect on REV-ERBα activity” value in experiment [1] (setting [3]) was “significant increase in luciferase expression compared with SR8278; also recorded: significant antagonistic activity”.
As to `CCOC(=O)C1Cc2ccccc2CN1C(=O)c1ocnc1C` (racemic) [Compound 11, Ethyl 2-(4-methyloxazole-5-carbonyl)-1,2,3,4-tetrahydrolsoquinoline-3-carboxylate], the “Effect on REV-ERBα activity” value in experiment [1] (setting [3]) is recorded as “significant increase in luciferase expression compared with SR8278; also recorded: significant antagonistic activity”; in experiment [1] (setting [4]), “significant antagonistic activity”; in experiment [1] (setting [5]), “significant antagonistic activity”. The “Total number of NK cells” value in experiment [2] (setting [6]) is “significant increase in the total number of NK cells compared with SR8278”; in experiment [2] (setting [7]), “increase in the total number of NK cells compared with SR8278”; in experiment [2] (setting [8]), “significant increase in NK cell number”.
In the case of `CCOC(=O)C1Cc2ccccc2CN1C(=O)c1scnc1C` (racemic) [Compound 12, Ethyl 2-(4-methylthiazole-5-carbonyl)-1,2,3,4-tetrahydrolsoquinoline-3-carboxylate], the “Effect on REV-ERBα activity” value in experiment [1] (setting [3]) is “significant increase in luciferase expression compared with SR8278; also recorded: significant antagonistic activity”.
Take `CCOC(=O)C1Cc2ccccc2CN1C(=O)c1cccnc1F` (racemic) [Compound 27]: the “Effect on REV-ERBα activity” value in experiment [1] (setting [5]) is “Inhibitory effect on REV-ERB was observed; also recorded: significant antagonistic activity”.
In the case of `CCOC(=O)C1Cc2ccccc2CN1C(=O)c1ccnc(C)c1` (racemic) [Compound 28], the “Effect on REV-ERBα activity” value in experiment [1] (setting [5]) is reported as “Inhibitory effect on REV-ERB was observed; also recorded: significant antagonistic activity”.
On to `CCOC(=O)CN(Cc1ccccc1)C(=O)c1ccco1` (racemic) [Compound 72], for which the “Effect on REV-ERBα activity” value in experiment [1] (setting [4]) is on record as “inhibitory effect on REV-ERB greater than that obtained using SR8278; also recorded: significant antagonistic activity”. For the same molecule, the “Total number of NK cells” value in experiment [2] (setting [6]) is listed as “significant increase in the total number of NK cells compared with SR8278”; in experiment [2] (10 μM, FIG. 10, compared with SR8278) it was “significant increase in the total number of NK cells compared with SR8278”; in experiment [2] (setting [8]) it was “significant increase in NK cell number”.
`CCOC(=O)C1Cc2ccccc2CN1C(=O)c1cccc2ccccc12` (centres unmarked) [AG1]: in experiment [1] (setting [3]), the “Effect on REV-ERBα activity” value was “agonists”.
Turning to `CSc1ccc(C(=O)N2Cc3ccccc3CC2COc2ccc(OC(C)(C)C)cc2)s1` (centres unmarked) [AG5], the “Effect on REV-ERBα activity” value in experiment [1] (setting [3]) is “agonists”; in experiment [1] (setting [5]), “agonist”.
